ChEMBL document CHEMBL1201862, “PubChem BioAssay data set” (2004)
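A five-concentration, 48-hour dose response in 96-well plates underlies each endpoint, interpolated linearly between surrounding concentrations. Abbreviation: GI50, concentration required for 50% inhibition of growth.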 Calls of active or inactive are those of the source. Cut-off read from the data, not from the text of the source: active = GI50 up to about 1.1 µM and inactive = higher.

Columns and labels:
Experiment in all cases: NCI-60 cell line screen, 48 h
SW-620 = system: SW-620
OVCAR-4 = system: OVCAR-4
M14 = system: M14
UACC-62 = system: UACC-62
HCT-116 = system: HCT-116
TK-10 = system: TK-10
RXF 393 = system: RXF 393
Hs-578T = system: Hs-578T
IGROV-1 = system: IGROV-1
A549 = system: A549
NCI/ADR-RES = system: NCI/ADR-RES
UO-31 = system: UO-31
T47D = system: T47D
SNB-19 = system: SNB-19
SK-MEL-2 = system: SK-MEL-2
NCI-H226 = system: NCI-H226
HOP-92 = system: HOP-92
CAKI-1 = system: CAKI-1
786-0 = system: 786-0
RPMI-8226 = system: RPMI-8226

| SMILES | GI50 (SW-620) | GI50 (OVCAR-4) | GI50 (M14) | GI50 (UACC-62) | GI50 (HCT-116) | GI50 (TK-10) | GI50 (RXF 393) | GI50 (Hs-578T) | GI50 (IGROV-1) | GI50 (A549) | GI50 (NCI/ADR-RES) | GI50 (UO-31) | GI50 (T47D) | GI50 (SNB-19) | GI50 (SK-MEL-2) | GI50 (NCI-H226) | GI50 (HOP-92) | GI50 (CAKI-1) | GI50 (786-0) | GI50 (RPMI-8226) |
| --- | --- | --- | --- | --- | --- | --- | --- | --- | --- | --- | --- | --- | --- | --- | --- | --- | --- | --- | --- | --- |
| C=CC(O)C#Cc1cnc(OC)nc1OC (centres undefined) | 75.9 µM (inactive) | > 100 µM (inactive) | > 100 µM (inactive) | > 100 µM (inactive) | 82.8 µM (inactive) | > 100 µM (inactive) | > 100 µM (inactive) | > 100 µM (inactive) | > 100 µM (inactive) | > 100 µM (inactive) | > 100 µM (inactive) | > 100 µM (inactive) | > 100 µM (inactive) | > 100 µM (inactive) | > 100 µM (inactive) | 30.1 µM (inactive) | > 100 µM (inactive) | 35.1 µM (inactive) | 38.6 µM (inactive) | – |
| CC(=O)Oc1cc(-c2oc3cc(OC(C)=O)c(C4OC(CO)C(O)C(O)C4O)c(OC(C)=O)c3c(=O)c2O)c(OC(C)=O)cc1O (centres undefined) | > 100 µM (inactive) | > 100 µM (inactive) | > 100 µM (inactive) | > 100 µM (inactive) | > 100 µM (inactive) | > 100 µM (inactive) | > 100 µM (inactive) | > 100 µM (inactive) | > 100 µM (inactive) | > 100 µM (inactive) | > 100 µM (inactive) | > 100 µM (inactive) | – | – | > 100 µM (inactive) | 91.8 µM (inactive) | 26.3 µM (inactive) | > 100 µM (inactive) | > 100 µM (inactive) | 56.4 µM (inactive) |
| CCN(CC)/C(Sc1ccccc1)=C(\C(Cl)=C(Cl)Cl)[N+](=O)[O-] | 17.9 µM (inactive) | 33.7 µM (inactive) | 17.3 µM (inactive) | 14.6 µM (inactive) | 16.4 µM (inactive) | 16.9 µM (inactive) | 13.6 µM (inactive) | 20.7 µM (inactive) | 16 µM (inactive) | 21.7 µM (inactive) | 24.9 µM (inactive) | 14.8 µM (inactive) | 17.8 µM (inactive) | 20.6 µM (inactive) | – | 18.5 µM (inactive) | 14.2 µM (inactive) | 13 µM (inactive) | 18 µM (inactive) | – |
| CCOc1ccc(Nc2nc3c(s2)C(=O)c2ccccc2C3=O)cc1 | 3.21 µM (inactive) | 0.787 µM (active) | 12.2 µM (inactive) | 2.24 µM (inactive) | 13.2 µM (inactive) | 20.8 µM (inactive) | 12.8 µM (inactive) | 12.1 µM (inactive) | 11.9 µM (inactive) | 19.5 µM (inactive) | – | 14.4 µM (inactive) | 13.6 µM (inactive) | 15.7 µM (inactive) | 15.1 µM (inactive) | – | 12.3 µM (inactive) | 8.41 µM (inactive) | 14.2 µM (inactive) | 3.85 µM (inactive) |
| Cc1ccc([N+](=O)[O-])cc1NC1=NCCO1 | > 100 µM (inactive) | > 100 µM (inactive) | > 100 µM (inactive) | > 100 µM (inactive) | > 100 µM (inactive) | > 100 µM (inactive) | > 100 µM (inactive) | > 100 µM (inactive) | > 100 µM (inactive) | > 100 µM (inactive) | > 100 µM (inactive) | > 100 µM (inactive) | > 100 µM (inactive) | > 100 µM (inactive) | > 100 µM (inactive) | > 100 µM (inactive) | – | > 100 µM (inactive) | > 100 µM (inactive) | > 100 µM (inactive) |
| CO/N=C(/C)c1cccc(Nc2nc3ccccc3c3[nH]c4ccccc4c23)c1 | 10.1 µM (inactive) | – | 7.69 µM (inactive) | 6.03 µM (inactive) | 3.16 µM (inactive) | – | – | 13.8 µM (inactive) | 13.5 µM (inactive) | 8.75 µM (inactive) | 8.97 µM (inactive) | 10.1 µM (inactive) | 1.84 µM (inactive) | 12.9 µM (inactive) | 10.7 µM (inactive) | 13.7 µM (inactive) | – | 10.5 µM (inactive) | 8.55 µM (inactive) | – |
| Cc1ccc(C(=O)Nc2ccc(CP(=O)(O)O)cc2CP(=O)(O)O)cc1NC(=O)Nc1cc(C(=O)Nc2ccc(CP(=O)(O)O)cc2CP(=O)(O)O)ccc1C | > 100 µM (inactive) | > 100 µM (inactive) | > 100 µM (inactive) | > 100 µM (inactive) | > 100 µM (inactive) | > 100 µM (inactive) | > 100 µM (inactive) | > 100 µM (inactive) | > 100 µM (inactive) | > 100 µM (inactive) | > 100 µM (inactive) | > 100 µM (inactive) | > 100 µM (inactive) | > 100 µM (inactive) | > 100 µM (inactive) | > 100 µM (inactive) | – | > 100 µM (inactive) | > 100 µM (inactive) | > 100 µM (inactive) |
| S=C(Nc1ccc2c(c1)oc1ccccc12)c1cccnc1 | > 100 µM (inactive) | 33.7 µM (inactive) | > 100 µM (inactive) | 39.5 µM (inactive) | 85.7 µM (inactive) | 30.5 µM (inactive) | – | > 10 µM (inactive) | 41.1 µM (inactive) | 37.6 µM (inactive) | 25.1 µM (inactive) | 22.7 µM (inactive) | 30.5 µM (inactive) | 21.3 µM (inactive) | 30.5 µM (inactive) | 24.3 µM (inactive) | 25.3 µM (inactive) | – | 35.3 µM (inactive) | > 100 µM (inactive) |
